Assay results: US11154527B2, “Dermatophytosis prophylaxis and treatment” (The Children's Mercy Hospital, priority 2015, dated 2021)
Like-named read-outs stand apart in the source and are kept apart here.

Columns and labels:
[1] = test system: reference strain of T. tonsurans; experiment: Preliminary screening of 7,676 compounds (384 well format), growth read at 600 nm; assay type: cell-based, Trichophyton tonsurans; conditions: preliminary screen
Procedure: (§1) Materials Used: • 10 mm×100 mm petri plate of dermatophyte culture grown to confluency (>14 days) on Sabouraud's dextrose agar (Becton Dickinson, Sparks Md.) containing 50 mg/L chloramphenicol and 500 mg/L cycloheximide (Sigma Chemical Company, St. Louis Mo.) (see appendix A for recipe). • 1× sterile Phosphate Buffered Saline (Sigma Chemical Company, St. Louis Mo.). • (2) 15 mL sterile disposable conical tubes (Thermo Fisher Scientific, Rochester N.Y.). • Disposable sterile inoculating loop (Fisher Scientific, Hanover Park Ill.). • Disposable sterile transfer pipette (Fisher Scientific, Hanover Park Ill.). • Sterilized 2″×2″ 4 ply gauze (Medline Industries, Mundelein Ill.) • 30 mL sterile disposable syringe (Becton Dickinson, Franklin Lakes N.J.). • Hemocytometer (Fisher Scientific, Hanover Park Ill.).
(§2) Spore Prep Procedure (performed aseptically in a biosafety cabinet): • The fungal plate was flooded with 10 mL of sterile 1×PBS and with a sterile disposable inoculating loop, then the surface was gently scraped until all the fungal material (hyphae and spores) was liberated into the PBS. • Using a disposable transfer pipette, the entire volume of PBS/spores was transferred from the plate into a sterile 15 mL conical tube. • Next, 2 mL of sterile 1×PBS was added to the plate and swirled to rinse. • Using the transfer pipette, the remaining volume of PBS/spores was transferred from the plate to the 15 mL conical. • Then, the 15 mL tube was capped and vortexed at max speed for 10-15 seconds, set aside. • The plunger from the 30 mL syringe was then removed and the barrel was packed with 1 square of sterile 2″×2″ gauze. • Using the plunger, the gauze was firmly packed at the bottom of the barrel then the plunger was removed. • The syringe barrel was placed into a new sterile 15 mL conical tube and the entire contents of the 15 mL PBS/spore suspension was poured directly onto the gauze in the syringe barrel. • The plunger was then gently inserted into the barrel and depressed all the way down to filter the spore/hyphal suspension through the gauze. • The plunger was gently removed and additional 2 mL of sterile PBS was added back to the original 15 mL conical tube.
Screening (384 well format):
Note: final concentration of DMSO was not to exceed 0.5%.
NOTE: there was residual spore suspension, the calculations above allowed for overage to ensure enough suspension is made for each plate. • Using the peristaltic pump, the automated dispenser was programmed to deliver 35 μL of 2×SabDEX broth to each well in the 384 well plate. The pump was then purged of growth media and re-primed with the spore suspension. The dispenser was then programmed to deliver 35 μL of spore suspension to each test well (to include+growth controls). • Negative growth controls were made by manually pipetting 35 μL of sterile 1×PBS from a sterile multi-channel boat into each (−) control well using a 100 μL pipette. • Each plate was given a numerical designation, dated, sealed with an EDGE® seal and placed in a 32° C. incubator for 48 hours. • After incubation, the seal was carefully removed and the plate read at 600 nm using a single point read on a microplate reader. • If more time was required, the plate was re-sealed and incubated an additional 24 hours.

[2] = test system: reference strain of T. tonsurans; experiment: MIC / dose-response testing against reference strain of T. tonsurans; assay type: cell-based, Trichophyton tonsurans; conditions: Trichophyton tonsurans
Procedure: as §1, §2
(§3) MIC Testing (96 well format):
(§4) To Make the Spore Suspension:
(§5) • A 2 mM stock of the compound to be tested was made in 100% DMSO in a sterile 1.5 mL microfuge tube. • Vortexed the tube vigorously for 1 minute, then protected the compound from light and rocked or shook for 1 hour at room temperature to fully dissolve. • NOTE: Because the 2× culture media was diluted with an equal volume of spore/PBS solution to achieve a 1× final media concentration, the high standard for the range of compound to be tested was made at 2× the highest concentration desired and contain a final DMSO concentration of 0.5%.
(§6) To generate the range of compound to be tested, the following dilution protocol was performed:
(§7) (a) The high standard was made:
(§8) The result was 1000 μL of a 20 μM stock in 2× Culture Medium with a final [DMSO] of 1%.
(§9) (b) The drug dilution range to be tested was made by serially diluting the high standard 1:1 with 2× Culture Medium/1% DMSO.
(§10) Aseptically added 100 μL of the drug/media manually to each well according to the plate map in FIG. 2, as follows: […]

[3] = test system: 5 genetically distinct strain of T. tonsurans; experiment: MIC testing against 5 genetically distinct strains of T. tonsurans; assay type: cell-based; conditions: Trichophyton tonsurans
Procedure: as §1, §2, §3, §4, §5, §6, §7, §8, §9, §10

T. rubrum = experiment: MIC testing against different Trichophyton species: T. rubrum; assay type: cell-based
Procedure: (§11) Materials Used: • 10 mm×100 mm petri plate of dermatophyte culture grown to confluency (>14 days) on Sabouraud's dextrose agar (Becton Dickinson, Sparks Md.) containing 50 mg/L chloramphenicol and 500 mg/L cycloheximide (Sigma Chemical Company, St. Louis Mo.) (see appendix A for recipe). • 1× sterile Phosphate Buffered Saline (Sigma Chemical Company, St. Louis Mo.). • (2) 15 mL sterile disposable conical tubes (Thermo Fisher Scientific, Rochester N.Y.). • Disposable sterile inoculating loop (Fisher Scientific, Hanover Park Ill.). • Disposable sterile transfer pipette (Fisher Scientific, Hanover Park Ill.). • Sterilized 2″×2″ 4 ply gauze (Medline Industries, Mundelein Ill.) • 30 mL sterile disposable syringe (Becton Dickinson, Franklin Lakes N.J.). • Hemocytometer (Fisher Scientific, Hanover Park Ill.). […]

T. equinum = experiment: MIC testing against different Trichophyton species: T. equinum; assay type: cell-based
Procedure: as §11

T. mentagrophytes = experiment: MIC testing against different Trichophyton species: T. mentagrophytes; assay type: cell-based
Procedure: as §11

[4] = range, reference strain of T. tonsurans (Table 2), read-out: IC50 [range]
[5] = reference strain of T. tonsurans (Table 2), read-out: IC50

| Structure (SMILES) | Prelim H ratio [1] | Prelim L ratio [1] | IC50 ([2]; dose response (DR plate), reference strain of T. tonsurans, read-out: rMIC50) [nM] | IC50 [2, 4] [nM] | IC50 [2, 5] [nM] | IC50 ([3]; T. tonsurans strain 0924-0254) [nM] | IC50 ([3]; T. tonsurans strain 0924-1093) [nM] | IC50 ([3]; T. tonsurans strain 0924-1456) [nM] | IC50 ([3]; T. tonsurans strain 0924-1669) [nM] | IC50 ([3]; T. tonsurans strain 1119-0616) [nM] | IC50 (T. rubrum) [nM] | IC50 (T. equinum) [nM] | IC50 (T. mentagrophytes) [nM] |
| --- | --- | --- | --- | --- | --- | --- | --- | --- | --- | --- | --- | --- | --- |
| COCc1c(C(C)C)nc(C(C)C)c(/C=C/[C@@H](O)C[C@@H](O)CC(=O)O)c1-c1ccc(F)cc1 [Cerivastatin] | 1.06 | 2.28 | < 10 | 3 to 58 | 10 | 3 | 5 | 15 | 5 | 10 | 68 | 21 | 19 |
| CCC(C)(C)C(=O)O[C@H]1C[C@@H](C)C=C2C=C[C@H](C)[C@H](CC[C@@H](O)C[C@@H](O)CC(=O)O)[C@H]21 [simvistatin acid] | – | – | – | 24 to 62 | 30 | 29 | 50 | 52 | 52 | 62 | 303 | 86 | 71 |
